Active and inactive are the calls of the source. No cut-off for these calls is given here.
Assays:
Dihydrofolate reductase = target: T1, Dihydrofolate reductase (Homo sapiens, UniProt P00374); test: Inhibition of human dihydrofolate reductase using dihydrofolic acid as substrate preincubated for 1 hr in presence of NADPH followed by substrate addition by enzyme immunoassay
T1 sequence (P00374 whole entry): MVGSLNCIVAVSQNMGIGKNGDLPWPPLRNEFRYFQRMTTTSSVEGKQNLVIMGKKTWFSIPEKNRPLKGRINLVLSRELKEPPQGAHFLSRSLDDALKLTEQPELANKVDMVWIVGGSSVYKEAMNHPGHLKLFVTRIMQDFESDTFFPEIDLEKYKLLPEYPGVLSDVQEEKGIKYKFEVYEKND

C6 [1] = test: Cell cycle arrest in rat C6 cells assessed as increase in cell population at sub G0 phase measured after 24 hrs by propidium iodide staining based flow cytometry analysis; assay type: functional
C6 [2] = test: Cell cycle arrest in rat C6 cells assessed as decrease in cell population at S phase measured after 24 hrs by propidium iodide staining based flow cytometry analysis; assay type: functional
C6 [3] = test: Cell cycle arrest in rat C6 cells assessed as decrease in cell population at G2/M phase measured after 24 hrs by propidium iodide staining based flow cytometry analysis; assay type: functional
C6 [4] = test: Antiproliferative activity against rat C6 cells assessed as decrease in cell viability measured after 48 hrs by MTT assay; assay type: functional, cell-based; conditions: for IC50: C6, 48 h
C6 [5] = test: Induction of morphological changes in rat C6 cells assessed as cellular senescence by measuring cell rounding with distorted morphology after 24 hrs by inverted microscopy analysis; assay type: functional, cell-based
C6 [6] = test: Cell cycle arrest in rat C6 cells assessed as cell population at G0/G1 phase measured after 24 hrs by propidium iodide staining based flow cytometry analysis; assay type: functional
UO-31 = test: Growth inhibition of human UO31 cells at 10^-5 M incubated for 48 hrs by sulforhodamine B assay relative to control; assay type: functional; conditions: UO-31, 48 h, read-out: GI
MCF7 = test: Growth inhibition of human MCF7 cells at 10^-5 M incubated for 48 hrs by sulforhodamine B assay relative to control; assay type: functional; conditions: MCF7, 48 h, read-out: GI
C6 [7] = test: Induction of morphological changes in rat C6 cells assessed as increase in total length of processes measured after 24 hrs by inverted microscopy analysis relative to control; assay type: functional

CN1C(=O)C(=Cc2cn(CC(O)Cn3c4ccccc4c(=O)c4ccccc43)c3ccccc23)C(=O)N(C)C1=O (racemic)
IC50 (Dihydrofolate reductase): 0.21 µM

CC1=NN(c2cccc(Cl)c2)C(=O)/C1=C\c1cn(CC(O)Cn2c3ccccc3c(=O)c3ccccc32)c2ccccc12 (racemic)
IC50 (Dihydrofolate reductase): 1.8 µM

COc1cccc2c1C(=O)c1c(O)c3c(c(O)c1C2=O)C[C@@](O)(C(=O)CO)C[C@@H]3O[C@H]1C[C@H](N)[C@@H](O)[C@H](C)O1
Activity (C6 [1]): Active
inhibition (C6 [2]): Active
inhibition (C6 [3]): Active

C[C@H](NC(=O)CNC(=O)c1cccc2c(=O)c3ccccc3[nH]c12)C(=O)O
inhibition (C6 [4]): Dose-dependent effect
IC50 (C6 [4]): 0.25 to 1.5 µM
IC50 (Dihydrofolate reductase): 0.67 µM
Activity (C6 [5]): Active
Activity (C6 [6]): inactive

O=C1Nc2ccccc2/C1=C/c1cn(CC(O)Cn2c3ccccc3c(=O)c3ccccc32)c2ccccc12 (racemic)
inhibition of growth at 10 µM (UO-31): 70%
inhibition of growth at 10 µM (MCF7): 55%
inhibition (C6 [4]): Dose-dependent effect
IC50 (C6 [4]): 0.25 to 1.5 µM
Activity (C6 [7]): 16 - 18%
inhibition (C6 [3]): Active
IC50 (Dihydrofolate reductase): 0.1 µM
Activity (C6 [5]): Active
Activity (C6 [6]): inactive

From ChEMBL document CHEMBL4359904, “Structural tuning of acridones for developing anticancer agents targeting dihydrofolate reductase” (Bioorg Med Chem Lett, 2019)
